Source: PubChem BioAssay (NCI)
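Protocol summary: plate cells (96-well), add compound at 5 concentrations, incubate 48 h, interpolate endpoints linearly. At the GI50, growth is halved. TGI: concentration producing complete growth inhibition.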

What was measured:
Test in all cases: DTP human tumour cell line panel, 48 h; in the data active means GI50 below about 0.43 µM; inactive means the rest
OVCAR-4 ovarian = tested on: OVCAR-4 ovarian
MDA-MB-435 = tested on: MDA-MB-435
OVCAR-5 ovarian = tested on: OVCAR-5 ovarian
SW-620 colon = tested on: SW-620 colon
COLO 205 colon = tested on: COLO 205 colon
SK-MEL-5 melanoma = tested on: SK-MEL-5 melanoma
UO-31 renal = tested on: UO-31 renal
KM12 colon = tested on: KM12 colon
PC-3 prostate = tested on: PC-3 prostate
T-47D breast = tested on: T-47D breast
SK-OV-3 ovarian = tested on: SK-OV-3 ovarian
NCI-H522 lung = tested on: NCI-H522 lung
A549 NSCLC = tested on: A549 NSCLC
SN12C renal = tested on: SN12C renal
DU-145 prostate = tested on: DU-145 prostate
SF-295 CNS = tested on: SF-295 CNS
SK-MEL-28 melanoma = tested on: SK-MEL-28 melanoma
MALME-3M melanoma = tested on: MALME-3M melanoma
HCT-116 colon = tested on: HCT-116 colon
NCI/ADR-RES ovarian = tested on: NCI/ADR-RES ovarian
CAKI-1 renal = tested on: CAKI-1 renal
MDA-MB-231 breast = tested on: MDA-MB-231 breast
OVCAR-3 ovarian = tested on: OVCAR-3 ovarian
786-0 renal = tested on: 786-0 renal
NCI-H226 lung = tested on: NCI-H226 lung
HT29 colon = tested on: HT29 colon
MOLT-4 leukemia = tested on: MOLT-4 leukemia
SNB-19 CNS = tested on: SNB-19 CNS
UACC-62 melanoma = tested on: UACC-62 melanoma
IGROV1 ovarian = tested on: IGROV1 ovarian
A498 renal = tested on: A498 renal
NCI-H460 lung = tested on: NCI-H460 lung
OVCAR-8 ovarian = tested on: OVCAR-8 ovarian
ACHN renal = tested on: ACHN renal
CCRF-CEM leukemia = tested on: CCRF-CEM leukemia
HL-60(TB) leukemia = tested on: HL-60(TB) leukemia
LOX IMVI melanoma = tested on: LOX IMVI melanoma
HS 578T breast = tested on: HS 578T breast
TK-10 renal = tested on: TK-10 renal
MCF7 breast = tested on: MCF7 breast
NCI-H23 lung = tested on: NCI-H23 lung
U251 CNS = tested on: U251 CNS
HOP-62 NSCLC = tested on: HOP-62 NSCLC
SK-MEL-2 melanoma = tested on: SK-MEL-2 melanoma
HCT-15 colon = tested on: HCT-15 colon
RXF 393 renal = tested on: RXF 393 renal
BT-549 breast = tested on: BT-549 breast
SF-539 CNS = tested on: SF-539 CNS
HCC-2998 colon = tested on: HCC-2998 colon
RPMI-8226 leukemia = tested on: RPMI-8226 leukemia
SNB-75 CNS = tested on: SNB-75 CNS
K-562 leukemia = tested on: K-562 leukemia
SF-268 CNS = tested on: SF-268 CNS
HOP-92 NSCLC = tested on: HOP-92 NSCLC

COC(=O)C(N)CSC(c1ccccc1)(c1ccccc1)c1ccccc1 (stereo not drawn)
44.8 µM: TGI (OVCAR-3 ovarian)
83.5 µM: TGI (TK-10 renal)
> 100 µM: TGI (OVCAR-4 ovarian) | TGI (OVCAR-5 ovarian) | TGI (SW-620 colon) | TGI (COLO 205 colon) | TGI (UO-31 renal) | TGI (PC-3 prostate) | TGI (T-47D breast) | TGI (SK-OV-3 ovarian) | TGI (A549 NSCLC) | TGI (SN12C renal) | TGI (DU-145 prostate) | TGI (SF-295 CNS) | TGI (SK-MEL-28 melanoma) | TGI (CAKI-1 renal) | TGI (NCI-H226 lung) | TGI (MOLT-4 leukemia) | TGI (SNB-19 CNS) | TGI (UACC-62 melanoma) | TGI (IGROV1 ovarian) | TGI (OVCAR-8 ovarian) | TGI (ACHN renal) | TGI (CCRF-CEM leukemia) | TGI (LOX IMVI melanoma) | TGI (MCF7 breast) | TGI (NCI-H23 lung) | TGI (U251 CNS) | TGI (HOP-62 NSCLC) | TGI (HCT-15 colon) | TGI (K-562 leukemia) | TGI (SF-268 CNS)
34.4 µM: TGI (HCT-116 colon)
26.9 µM: TGI (SK-MEL-5 melanoma)
8.48 µM: TGI (HL-60(TB) leukemia)
86.5 µM: TGI (786-0 renal)
53.3 µM: TGI (BT-549 breast)
73.5 µM: TGI (NCI/ADR-RES ovarian)
29.9 µM: TGI (HCC-2998 colon)
53.5 µM: TGI (KM12 colon)
28.5 µM: TGI (RPMI-8226 leukemia)
15 µM: TGI (HS 578T breast)
2.22 µM: TGI (NCI-H522 lung)
41.6 µM: TGI (SNB-75 CNS)
54 µM: TGI (A498 renal)
0.644 µM: TGI (MDA-MB-435)
74 µM: TGI (MALME-3M melanoma)
11.7 µM: TGI (RXF 393 renal)
inactive: GI50 (OVCAR-4 ovarian) 15.5 µM | GI50 (OVCAR-5 ovarian) 3.84 µM | GI50 (SW-620 colon) 0.679 µM | GI50 (COLO 205 colon) 2.15 µM | GI50 (SK-MEL-5 melanoma) 0.538 µM | GI50 (UO-31 renal) 9.93 µM | GI50 (KM12 colon) 2.88 µM | GI50 (PC-3 prostate) 1.72 µM | GI50 (T-47D breast) 4.62 µM | GI50 (SK-OV-3 ovarian) 0.607 µM | GI50 (A549 NSCLC) 2.93 µM | GI50 (SN12C renal) 0.863 µM | GI50 (DU-145 prostate) 3.26 µM | GI50 (SF-295 CNS) 2.89 µM | GI50 (SK-MEL-28 melanoma) 3.14 µM | GI50 (MALME-3M melanoma) 4.7 µM | GI50 (NCI/ADR-RES ovarian) 8.81 µM | GI50 (CAKI-1 renal) 5.51 µM | GI50 (MDA-MB-231 breast) 1.62 µM | GI50 (OVCAR-3 ovarian) 2.97 µM | GI50 (786-0 renal) 4.23 µM | GI50 (NCI-H226 lung) 5.38 µM | GI50 (HT29 colon) 3.36 µM | GI50 (MOLT-4 leukemia) 4 µM | GI50 (SNB-19 CNS) 1.58 µM | GI50 (UACC-62 melanoma) 2.18 µM | GI50 (IGROV1 ovarian) 9.86 µM | GI50 (A498 renal) 0.629 µM | GI50 (NCI-H460 lung) 2.42 µM | GI50 (OVCAR-8 ovarian) 2.53 µM | GI50 (ACHN renal) 0.922 µM | GI50 (CCRF-CEM leukemia) 0.636 µM | GI50 (HL-60(TB) leukemia) 1.82 µM | GI50 (LOX IMVI melanoma) 4.48 µM | GI50 (HS 578T breast) 0.512 µM | GI50 (TK-10 renal) 7.04 µM | GI50 (MCF7 breast) 0.445 µM | GI50 (NCI-H23 lung) 4.45 µM | GI50 (U251 CNS) 0.61 µM | GI50 (HOP-62 NSCLC) 48.9 µM | GI50 (SK-MEL-2 melanoma) 0.493 µM | GI50 (HCT-15 colon) 2.7 µM | GI50 (BT-549 breast) 2.29 µM | GI50 (HCC-2998 colon) 2.1 µM | GI50 (RPMI-8226 leukemia) 0.676 µM | GI50 (SNB-75 CNS) 3.68 µM | GI50 (K-562 leukemia) 0.63 µM | GI50 (SF-268 CNS) 1.04 µM | GI50 (HOP-92 NSCLC) 0.436 µM
13.2 µM: TGI (HOP-92 NSCLC)
25.4 µM: TGI (MDA-MB-231 breast)
59.6 µM: TGI (HT29 colon)
43.8 µM: TGI (NCI-H460 lung)
3.53 µM: TGI (SF-539 CNS)
5.72 µM: TGI (SK-MEL-2 melanoma)
active: GI50 (MDA-MB-435) 0.247 µM | GI50 (NCI-H522 lung) 0.334 µM | GI50 (HCT-116 colon) 0.418 µM | GI50 (RXF 393 renal) 0.303 µM | GI50 (SF-539 CNS) 0.399 µM
